In ChEMBL document CHEMBL3045706, “Synthesis of licochalcones and inhibition effects on radical-induced oxidation of DNA” (Med Chem Res, 2013) one finds inhibition and Activity data, which are given here for 3 compounds.

Activity calls are given as the source filed them. The rule behind the calls is not given here.

What all share (type): functional
Test [1] is described as follows: Inhibition of AAPH-induced DNA oxidation by TBARS assay.
A short description of test [2]: Inhibition of Cu2+/GSH-induced DNA oxidation at 0.2 mM by TBARS assay.
Test [3] can be described thus: Antioxidant activity assessed as hydroxyl radical-induced DNA oxidation at 0.2 mM after 30 min by TBARS assay (reference value: 100%).

For the compound `C=C(C)C(C)c1cc(/C=C/C(=O)c2ccc(O)cc2)cc(OC)c1O` (centres undefined), the inhibition result in test [1] and in test [2] was “Active” in each case. Also, the Activity in test [3] came out at 91.3%.

With `C=C(C)C(C)c1cc(/C=C/C(=O)c2ccc(O)cc2O)cc(OC)c1O` (centres undefined), the inhibition result in test [1] and in test [2] was “Active” throughout. Moreover, the Activity in test [3] was determined as 106%.

In the case of `C=C(C)C(C)c1cc(/C=C/C(=O)c2c(O)cc(O)cc2O)cc(OC)c1O` (centres undefined), the inhibition result in test [1] and in test [2] was “Active” each time. In addition, in test [3], the Activity was determined as 98.2%.
